Experimental data from EPA's CvTdb concentration-time database.

Columns and labels:
rat [1] = test: concentration in blood after dosing; conditions: dosed: hexane, 60000 ppm, dermal, duration: 4 hr, male, F344
rat [2] = test: concentration in blood after dosing; conditions: dosed: hexane, 60000 ppm, dermal, duration: 4 hr, male, F344; remark: listed apart in the source
rat [3] = test: concentration in blood after dosing; conditions: dosed: hexane, 60000 ppm, dermal, duration: 4 hr, male, F344; remark: listed apart in the source
rat [4] = test: concentration in blood after dosing; conditions: dosed: hexane, 60000 ppm, dermal, duration: 4 hr, male, F344; remark: listed apart in the source
rat [5] = test: concentration in blood after dosing; conditions: dosed: hexane, 60000 ppm, dermal, duration: 4 hr, male, F344; remark: listed apart in the source
Rat [6] = conditions: dosed: dibromoacetic acid, 100 mg/kg, oral, Male, F344
Rat [7] = conditions: dosed: dibromoacetic acid, 40 mg/kg, oral, Male, F344
Rat [8] = conditions: dosed: dibromoacetic acid, 100 mg/kg, oral, Male, F344; remark: listed apart in the source
Rat [9] = conditions: dosed: dibromoacetic acid, 40 mg/kg, oral, Male, F344; remark: listed apart in the source
Rat [10] = conditions: dosed: dibromoacetic acid, 40 mg/kg, oral, Male, F344; remark: listed apart in the source
Rat [11] = conditions: dosed: dibromoacetic acid, 100 mg/kg, oral, Male, F344; remark: listed apart in the source
Rat [12] = test: concentration in blood after dosing; conditions: dosed: Naphthalene, 1 mg/kg, iv, Male, F344
Rat [13] = test: concentration in blood after dosing; conditions: dosed: Naphthalene, 10 mg/kg, iv, Male, F344
Rat [14] = test: concentration in blood after dosing; conditions: dosed: Naphthalene, 1 mg/kg, iv, Female, F344
Rat [15] = test: concentration in blood after dosing; conditions: dosed: Naphthalene, 1 mg/kg, iv, Male, F344; remark: listed apart in the source
Rat [16] = test: concentration in blood after dosing; conditions: dosed: Naphthalene, 1 mg/kg, iv, Female, F344; remark: listed apart in the source
Rat [17] = test: concentration in blood after dosing; conditions: dosed: Naphthalene, 3 mg/kg, iv, Male, F344
Rat [18] = test: concentration in blood after dosing; conditions: dosed: Naphthalene, 3 mg/kg, iv, Male, F344; remark: listed apart in the source
Rat [19] = test: concentration in blood after dosing; conditions: dosed: Naphthalene, 3 mg/kg, iv, Female, F344
Rat [20] = test: concentration in blood after dosing; conditions: dosed: Naphthalene, 10 mg/kg, iv, Male, F344; remark: listed apart in the source
Rat [21] = test: concentration in blood after dosing; conditions: dosed: Naphthalene, iv, F344

CCCCCC [hexane]
concentration in blood [ng/mL]
Conditions | rat [1] | rat [2] | rat [3] | rat [4] | rat [5]
0.5 h | – | 1240 | 1500 | 606 | –
1 h | 406 | 804 | 31.2 | 903 | 708
2 h | 812 | 1100 | – | 500 | 112
3 h | 796 | 1300 | 304 | – | 414
4 h | 200 | 999 | 804 | – | –

O=C(O)C(Br)Br [dibromoacetic acid]
amount in urine after dosing [µg]
Conditions | Rat [6] | Rat [7] | Rat [8] | Rat [9] | Rat [10] | Rat [11]
2 h | – | – | 17.7 | 0.735 | – | –
4 h | 61.7 | – | 54.6 | – | 8.7 | 55.8
8 h | – | 11.7 | 44.1 | – | 3.52 | –
24 h | 37.7 | 1.52 | 19.1 | 4.47 | 3.52 | 81
48 h | 2.24 | – | 4.62 | – | – | 5.03

c1ccc2ccccc2c1 [Naphthalene]
concentration in blood [ng/mL]
Conditions | 1 h | 2 h | 2 min | 4 h | 5 min | 6 h | 8 h | 10 min | 20 min | 40 min
Rat [12] | 30.5 | – | 1300 | – | 625 | – | – | 340 | 82.5 | 46.6
Rat [13] | 487 | 172 | – | 90.2 | 8740 | 47.3 | 33.3 | 4000 | 2610 | 661
Rat [14] | – | – | 21.4 | – | 51.6 | 23.6 | – | – | 20.5 | –
Rat [15] | 36.2 | – | 1390 | – | 701 | – | – | 312 | 127 | 54.8
Rat [16] | 21.2 | – | 1740 | – | 548 | – | – | 204 | 29.3 | 34.3
Rat [17] | 133 | 52.1 | 6890 | 19.3 | 4770 | – | – | 2440 | 736 | 255
Rat [18] | 169 | 82.8 | – | – | 2000 | – | – | 3690 | 1240 | 306
Rat [19] | 103 | 47 | 2870 | 26.7 | 1900 | 27.7 | 24.2 | 942 | 468 | 151
Rat [20] | 407 | 172 | – | 76.7 | 8050 | 38.2 | – | 4930 | 2640 | 839

concentration in blood [ng/mL], Rat [21]
Conditions | 1 mg/kg | 3 mg/kg | 10 mg/kg
1 h, Female | – | 80 | –
1 h, Male | 34.8 | 172 | 446
2 h, Female | – | 35.1 | –
2 h, Male | – | 233 | 214
2 min, Female | 1330 | 2780 | –
2 min, Male | 3260 | 260 | –
4 h, Male | – | 87.1 | 90
5 min, Female | 770 | 1480 | –
5 min, Male | 677 | 152 | 11200
6 h, Male | – | 90.9 | 58.5
8 h, Male | – | 20.6 | 38.1
10 min, Female | 407 | 1380 | –
10 min, Male | 315 | 215 | 6220
12 h, Male | – | – | 21.5
20 min, Female | 120 | 375 | –
20 min, Male | 107 | 185 | 2850
40 min, Female | 43 | 125 | –
40 min, Male | – | 173 | 860
